Measured values from patent US20210275581A1 (priority 2020, published 2021).

Columns and labels:
[1] = system: Staphylococcus aureus USA300 LAC; details: liquid culture, static growth, 37° C., 20 hours, 96 well microtiter plates
Protocol: (§1) Salmonella enterica Serovar typhimurium LT2, Staphylococcus aureus USA300 LAC, and Streptococcus mutans Clark (ATCC) were used for the experiment. […] S. enterica and S. aureus were cultured in Muller Hinton media (Sigma-Aldrich) and S. mutans was cultured in Reinforced Clostridial Media (Oxoid).
(§2) Single bacterial colonies were inoculated into 2 mL of medium in 10 mL capacity culture tubes. Inoculated cultures of S. aureus and S. enterica were grown aerobically at 37° C. with shaking at 200 rpm for 24 hours. S. mutans was cultured statically for 48 hours. […] MICs were determined in cultures grown in 96 well microtiter plates. 100 μL of the standardized culture was sub-cultured into wells containing 100 μL of medium containing antimicrobial compound. Control wells containing 200 μL of media only or media compound were used to standardize the data. The microtiter plates were aerobically incubated statically at 37° C. for 20 hours. Culture optical densities (A600) were determined using Biotek® EPOCH 2 microplate reader.
(§3) The ability of Zn and (CP)2ZnCl4 to inhibit the growth of bacterial pathogens was examined. The minimal inhibitory concentrations of Zn and (CP)2ZnCl4 were determined in liquid culture after static growth.

[2] = system: Salmonella enterica Serovar typhimurium LT2; details: liquid culture, static growth, 37° C., 20 hours, 96 well microtiter plates
Protocol: as §1, §2, §3

[3] = system: Streptococcus mutans Clark (ATCC); details: for minimal inhibitory concentration S. mutans: liquid culture, static growth, 37° C., 20 hours, 96 well microtiter plates
Protocol: as §1, §2, §3

## CCCCCCCCCCCCCCCC[n+]1ccccc1.CCCCCCCCCCCCCCCC[n+]1ccccc1.[Cl][Zn-2]([Cl])([Cl])[Cl] [(CP)2ZnCl4, cetylpyridinium tetrachlorozincate]
[1]
  minimal inhibitory concentration S. aureus: 6 µg/mL
[2]
  minimal inhibitory concentration S. enterica: 60 µg/mL
[3]
  minimal inhibitory concentration S. mutans: 6 µg/mL
[3]; result in words, comparison with CPC
  antibacterial activity against S. mutans, compared to CPC: slight improvement
[3]; result in words, comparison with zinc chloride or CPC
  MIC for Streptococcus mutans compared with zinc chloride or CPC: lower than that of zinc chloride or CPC

## [Cl-].[Cl-].[Zn+2] [ZnCl2, zinc chloride, reference compound]
[2]
  minimal inhibitory concentration S. enterica: ~300 µg/mL
[3]
  minimal inhibitory concentration S. mutans: ~65 µg/mL
